Measured values as given in a melting point compilation (Tetko et al.; mined from patent text by program, amines drawn as free bases though some values may be those of a salt).

SMILES	melting point
CCC(C=CC(C)C1CCC2C3CCC4=CC(=O)CCC4(C)C3CCC12C)C(C)C (stereo not drawn)	121 to 123 °C
CCOC(=O)c1ccc(CCC=O)cc1	109 °C
Cc1c(NC(=O)c2ccc(-c3cccc(NC(=O)C(C)C)c3)cc2)ccc2cc(CN3CCCC3)cnc12	152 to 155 °C
NC(=S)NN=C(CCCCl)c1ccc(Cl)cc1	125 to 126 °C
CNc1cc(NS(=O)(=O)c2ccc(N)cc2)nc(N2CCCC2)n1	299 to 301 °C
CNS(=O)(=O)c1cccnc1S(=O)(=O)NC(=O)Nc1nc(OC)cc(OC)n1	147 to 148 °C
CC(=O)Nc1cnc(N2CCN(CCCC(=O)c3ccc(F)cc3)CC2)cc1NC(C)=O	206 to 209 °C
CSc1nccn1CC(=O)NC1C(=O)N2C(C(=O)O)=C(CSc3nnc(C)s3)CSC12 (stereo not drawn)	220 °C
CC(C)c1ccc(-c2ccc3c(c2)C=C(C(=O)Nc2ccc(CN(C)C4CCOCC4)cc2)CCS3(=O)=O)cc1	240 to 247 °C
COc1cc(N2CCCN(C[C@@H](C)O)CC2)ccc1Nc1ncc2ccc(-c3ccccc3OC)n2n1	70 to 79 °C
CCCCc1nc2c(N)nc(C)c(C)c2n1CCCCNS(C)(=O)=O	130 °C
CS(=O)(=O)c1ccc(CCN2CC=C(c3c[nH]c(-c4ccc(F)cc4)c3-c3ccncc3)CC2)cc1	207 to 209 °C
CCCN=C(N)Nc1ccnc(SC)n1	177 to 178 °C
COc1cc(OC)c2c(c1)OC(C)(C)CC2NNc1ncnc2c1ncn2C1OC(CO)C(O)C1O (stereo not drawn)	111 to 113 °C
CC1=C(C(=O)c2ccc3c(c2)CN(C(N)=O)CC3)C(C)(C)CCC1	92.5 to 93.6 °C
CCOC(=O)c1cc(C(C)(C)C)n(-c2ccc(S(C)(=O)=O)cc2)n1	175 to 178 °C
Nc1cnc(Br)c(Cl)n1	120 to 122 °C
C=CC(=O)c1ccc(OCC(=O)O)c(Cl)c1Cl	111 to 113 °C
CN1CCN(C(=O)c2cc(N)cc3c2OCCO3)CC1	170 °C
O=C(NC1N=C(c2ccccc2F)c2ccccc2NC1=O)c1cc2ccccc2o1 (racemic)	289 to 291 °C
CCOC(=O)c1cc2cc(C)cc(C)c2[nH]1	141 to 143 °C
CCOP(=O)(CNCc1cccnc1-c1cc(C(C)(C)C)c(O)c(C(C)(C)C)c1)OCC	100 to 101 °C
Cc1ccc(C(=O)N(C)C)cc1-c1nc(NC2CCN(C)CC2)nc2c1CNC(=O)N2c1c(F)cccc1F	163 to 165 °C
O=C(O)C(CC1CCCC1)c1ccc(-c2ccncc2)cc1 (stereo not drawn)	118 to 121 °C
CCn1c(C(O)(C(C)C)C(C)C)nc(-c2ccncc2)c1-c1ccc(Cl)cc1	221 to 223 °C
Cc1nc(-c2ccc(C#N)cc2)sc1C(=O)N[C@H](C)[C@](O)(Cn1cncn1)c1ccc(C(F)(F)F)cc1 (relative stereo)	105 to 111 °C

SMILES	melting point
COC(=O)C(=C(C)NCC(O)CO)c1ncc([N+](=O)[O-])cc1[N+](=O)[O-] (stereo not drawn)	128 to 129 °C
NC1(C2CCCC2=O)OCCO1 (stereo not drawn)	134 to 136 °C
CC(C)N1N=C(c2ccc3c(c2)CCN(C2CCC2)CC3)CCC1=O	140 to 141 °C
COC(=O)C1=CCC(C#N)(c2ccc(OC)c(OC3CCCC3)c2)CC1 (stereo not drawn)	128 to 129 °C
Cc1cc([C@@H](O)[C@@H](C)N2CCC(O)(c3ccc(F)cc3)CC2)cc(C)c1O[Si](C(C)C)(C(C)C)C(C)C (relative stereo)	186 to 187 °C
CCOC(=O)C(Cc1ccc(C(N)=S)cc1)(NC(C)=O)C(=O)OCC	168 to 172 °C
CCOC(=O)C1=C(C)NC(C)=C(C(=O)OCC)C1c1ccc(Br)cc1F	154 to 155 °C
COc1cc(Cc2cnc(N)nc2N)cc2c(C)cc(C)nc12	289 to 290 °C
C=C(CC(NC(=O)OC(C)(C)C)C(=O)OCC)CC(NC=O)(C(=O)OCC)C(=O)OCC (stereo not drawn)	68 °C
Cc1ccc(S(=O)(=O)OCC2Cc3cccc(Nc4ccc(Cl)cc4)c3O2)cc1 (stereo not drawn)	132 to 134 °C
Cc1nn(C)c2nc(N(CC3CC3)C(=O)C3CC3)c(CN(Cc3cc(C(F)(F)F)cc(C(F)(F)F)c3)c3nnn(C)n3)cc12	120 to 122 °C
COc1ccc(C(C)(c2ccc(OC)cc2)c2ccc(OC)cc2)cc1	160 °C
COc1c(Cl)ccc(-c2nc(C(=O)OCc3ccc(Cl)cc3)c(Cl)c(N)c2F)c1F	143 °C
CCS(=O)(=O)Nc1cccc2c1N=C(c1ccc(-n3c(C)nc4cnccc43)cc1)CC(=O)N2	258 to 260 °C
CCn1cc(C(=O)O)c(=O)c2cc(F)c(N3CCCC(O)C3)c(F)c21 (stereo not drawn)	232 to 234 °C
CCCC1CCC(C2CCC3(CC2)C(=O)C2(CCC(C4CCC(CCC)CC4)CC2)C3=O)CC1 (stereo not drawn)	290 °C
CC(C)Oc1cc(CCC(=O)NS(=O)(=O)c2ccc(C(F)(F)F)cc2)n(Cc2ccc(Cl)cc2Cl)n1	167 to 169 °C
Cc1ccc2nc(N3CCN(c4c(Cl)cncc4Cl)CC3)[nH]c2c1	251 to 254 °C
CCCCCCCCNc1nc(Cl)nc(NCCCCCCCC)n1	171 to 172 °C
O=[N+]([O-])c1cc(C(F)F)cc2nc(C(F)(F)F)[nH]c12	132 to 134 °C
CCC1(CO)Cc2cc(OCC(=O)O)c(Cl)c(Cl)c2C1=O (stereo not drawn)	155 to 157 °C
COc1nc(C)nc(NC(=O)NS(=O)(=O)c2ccccc2-n2nnnc2C)n1	207 to 209 °C
CC(=O)Oc1cnc(C(C)(C)C)nc1O	164 °C
CC(=O)NCC1CC1c1cccc2nc(C)cn12 (stereo not drawn)	170 to 171 °C
CCSc1cc(C)nc(SCC)c1NC(=O)CCCCCCCSc1nc2ccccc2o1	82 to 84 °C
Cc1noc(C)c1COc1cc(-n2c(=O)cc(C(F)(F)F)n(C)c2=O)c(F)cc1Cl	120 to 123 °C

Second part, the compound after the results:

melting point	SMILES
226 to 228 °C	CCCc1nc(C)c2c(Sc3ccc(NC(C)=O)cc3)nc(-c3ccccc3OCC)nn12
107 to 110 °C	Cc1ccc(S(=O)(=O)OCC2Cc3ccc(O)cc3O2)cc1 (stereo not drawn)
189 to 191 °C	CCc1nc2cc(/C=C/C(=O)NO)ccc2c(=O)n1CCCc1ccccc1
170 °C	CCCCOc1ccc(-c2ncc(C#N)c(Cl)n2)cc1
106 to 108 °C	COCCOC(=O)C1=C(O)c2ccccc2S(=O)(=O)N1C
130 to 131 °C	c1ccc(-c2cc[nH]c2-c2ccccc2)cc1
123 to 125 °C	COc1cc2c(cc1OC)-c1c(-c3ccccc3)sc(=N)n1CC2
155 to 157 °C	O=C(c1ccc(-c2ccccc2)cc1)c1ccc2n1Cc1ccccc1N(C(=O)COc1ccc(Cl)cc1)C2
122 to 124 °C	Oc1ccc(Oc2ncc(Cl)cc2Cl)cc1
158 to 161 °C	OC1CSC(Oc2cccc(-c3ccncc3Cl)c2)C(O)C1O (stereo not drawn)
47.1 to 48.4 °C	CCOC(=O)CCCOc1cccc2cc(C(C)=O)oc12
95.1 to 96 °C	CCOC(=O)C(Cc1ccc(OCCc2nc(-c3ccccc3)oc2C)cc1)C(=O)O (stereo not drawn)
122 °C	CCOC(=O)N1CCN(C2=Nc3ccccc3Oc3ccc(Cl)cc32)CC1
145 to 147 °C	CC(C)c1cccc(C(C)C)c1NC(=O)CC(=O)C1(c2ccccc2)CCCC1
160 to 161 °C	CCc1nc(-c2ccc(Cl)cc2)c(CCC(=O)O)o1
92 to 93 °C	CN(CCO)Cc1cc(C(=O)c2ccccc2)cc(C2CCCCC2)c1O
149 to 150 °C	Cc1ccc(COc2ccn(Cc3ccccc3)c(=O)c2Br)cc1
146 to 149 °C	N#Cc1cc(=O)cc(-c2ccccc2)o1
187 to 189 °C	C[C@@H]1COC(=O)N1c1nc(-c2cccc(C#N)c2)cs1
159 to 160 °C	c1ccc(OCNc2ccncc2)cc1
104 to 105 °C	COC(=O)CC(C#Cc1cccc(-c2nnc(C)o2)c1)c1ccc(OC)c(OC2CCCC2)c1 (racemic)
174 to 175 °C	O=C1N(Cc2ccc(Cl)s2)c2ccccc2C1(O)c1cc(OCc2ccccc2)ccc1O (stereo not drawn)
180 to 182 °C	Cc1c(Sc2ccc(Cl)cc2)nn(-c2ccccc2)c(=O)c1C#N

melting point	SMILES
105 to 108 °C	Cc1c(SCCCN2CCNCC2)ccnc1CNc1cnc2ccccc2c1
133 to 136 °C	CN=C1SCC(O)(C(c2ccccc2)c2ccccc2)N1C (stereo not drawn)
110 to 112 °C	ON=C1CCC(c2ccccc2)CC1 (stereo not drawn)
36 to 38 °C	CC1(C)NC(C)(C)c2ccccc21
181 to 184 °C	N#Cc1nn(-c2c(Cl)cc(-c3ccc(C(F)(F)F)cc3)cc2Cl)c(N)c1SC(F)(F)F
194 to 196 °C	CC(C)Nc1ncc2cc(-c3c(Cl)cccc3Cl)c(=O)n(C)c2n1
176 to 178 °C	CC(=NN(C1=NNC(=O)CC1)c1ccccc1)c1ccccc1
185 to 189 °C	O=C(NCc1ccccc1)c1cc(O)c(O)c([N+](=O)[O-])c1
284 to 288 °C	O=c1[nH]c2cc(Cl)ccc2c(O)c1-c1ccccc1Oc1ccccc1
165 to 167 °C	O=c1cc(-c2ccccc2)cc2n1CCN2Cc1ccccc1
148 to 150 °C	CCCCCCCOc1ccc(C(=O)Nc2ccccc2OCc2nnn[nH]2)cc1
120 to 122 °C	COc1cccc2cc(SCCC(=O)O)n(C)c12
55 to 56 °C	O=C(CCCCCCS(=O)(=O)c1ccccc1)c1ncco1
189 to 191 °C	NC(Cc1cccc2ccccc12)(C(=O)O)C1CC(C(=O)O)C1 (stereo not drawn)
164 to 165 °C	COc1ccc(/C=C/C(=O)C2C(=O)CC(c3ccc(OC)cc3)C([N+](=O)[O-])C2c2ccccc2)cc1 (stereo not drawn)
228 °C	CCCc1nc2c(N)nc3cc(OCc4ccccc4C)ccc3c2n1CC(C)C
182 to 185 °C	COc1cc(Nc2nc3cccc(-c4ccccc4)c3o2)cc(OC)c1OC
248 °C	O=C(O)CCc1cc2nc(Cl)ccc2n1S(=O)(=O)c1ccc2ncsc2c1
110 °C	C=CCOc1ccc2c(C)cc(=O)oc2c1
116 to 117 °C	C[C@@H](Cn1ncc2ccc3c(c21)O[C@@H](CO)CO3)NC(=O)OCc1ccccc1
115 to 117 °C	O=C1CC2Sc3nc4ccccc4n3C2(c2ccc(Cl)cc2)O1 (stereo not drawn)
58 to 59 °C	Cc1cccc(OC(=O)N2CCCC2=O)c1
66 to 68 °C	COc1cc(-c2ccc(Cl)cc2)ccc1COCCc1cccc(NS(=O)(=O)C(F)(F)F)c1
